Assay [1] concerns the target T1, androgen receptor (Homo sapiens, UniProt P10275).
T1 sequence (P10275 1-920): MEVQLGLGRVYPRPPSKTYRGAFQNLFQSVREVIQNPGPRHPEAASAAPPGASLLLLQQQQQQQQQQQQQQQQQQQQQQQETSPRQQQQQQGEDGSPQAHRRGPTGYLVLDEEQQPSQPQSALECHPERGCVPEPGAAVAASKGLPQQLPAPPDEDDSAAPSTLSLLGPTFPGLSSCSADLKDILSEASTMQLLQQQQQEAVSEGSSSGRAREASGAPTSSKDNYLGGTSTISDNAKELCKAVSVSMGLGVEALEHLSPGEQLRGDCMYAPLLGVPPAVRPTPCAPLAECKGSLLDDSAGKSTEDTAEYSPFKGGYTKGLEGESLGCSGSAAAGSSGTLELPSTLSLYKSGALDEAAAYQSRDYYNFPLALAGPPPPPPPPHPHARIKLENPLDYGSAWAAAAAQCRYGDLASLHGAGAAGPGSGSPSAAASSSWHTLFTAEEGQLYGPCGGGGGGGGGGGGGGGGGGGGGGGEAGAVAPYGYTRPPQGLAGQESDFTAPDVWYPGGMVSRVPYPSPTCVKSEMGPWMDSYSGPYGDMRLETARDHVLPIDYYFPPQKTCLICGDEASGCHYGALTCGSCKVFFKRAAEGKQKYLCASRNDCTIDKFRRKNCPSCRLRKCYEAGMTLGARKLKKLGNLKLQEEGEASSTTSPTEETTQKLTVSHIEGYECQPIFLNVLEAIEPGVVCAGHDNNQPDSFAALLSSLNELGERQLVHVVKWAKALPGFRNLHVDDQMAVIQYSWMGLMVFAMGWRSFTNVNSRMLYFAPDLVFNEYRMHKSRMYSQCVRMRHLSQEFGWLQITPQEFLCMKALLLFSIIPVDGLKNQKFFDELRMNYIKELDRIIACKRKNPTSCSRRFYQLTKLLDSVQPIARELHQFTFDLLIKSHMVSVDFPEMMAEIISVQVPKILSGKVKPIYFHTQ
Description: Androgen receptor binding test. Set-up: expressed in transfected cells. Conditions: reference substance 3H-testosterone.

The target of assay [2] is T2, mineralocorticoid receptor (Homo sapiens, UniProt P08235).
T2 sequence (P08235 1-984): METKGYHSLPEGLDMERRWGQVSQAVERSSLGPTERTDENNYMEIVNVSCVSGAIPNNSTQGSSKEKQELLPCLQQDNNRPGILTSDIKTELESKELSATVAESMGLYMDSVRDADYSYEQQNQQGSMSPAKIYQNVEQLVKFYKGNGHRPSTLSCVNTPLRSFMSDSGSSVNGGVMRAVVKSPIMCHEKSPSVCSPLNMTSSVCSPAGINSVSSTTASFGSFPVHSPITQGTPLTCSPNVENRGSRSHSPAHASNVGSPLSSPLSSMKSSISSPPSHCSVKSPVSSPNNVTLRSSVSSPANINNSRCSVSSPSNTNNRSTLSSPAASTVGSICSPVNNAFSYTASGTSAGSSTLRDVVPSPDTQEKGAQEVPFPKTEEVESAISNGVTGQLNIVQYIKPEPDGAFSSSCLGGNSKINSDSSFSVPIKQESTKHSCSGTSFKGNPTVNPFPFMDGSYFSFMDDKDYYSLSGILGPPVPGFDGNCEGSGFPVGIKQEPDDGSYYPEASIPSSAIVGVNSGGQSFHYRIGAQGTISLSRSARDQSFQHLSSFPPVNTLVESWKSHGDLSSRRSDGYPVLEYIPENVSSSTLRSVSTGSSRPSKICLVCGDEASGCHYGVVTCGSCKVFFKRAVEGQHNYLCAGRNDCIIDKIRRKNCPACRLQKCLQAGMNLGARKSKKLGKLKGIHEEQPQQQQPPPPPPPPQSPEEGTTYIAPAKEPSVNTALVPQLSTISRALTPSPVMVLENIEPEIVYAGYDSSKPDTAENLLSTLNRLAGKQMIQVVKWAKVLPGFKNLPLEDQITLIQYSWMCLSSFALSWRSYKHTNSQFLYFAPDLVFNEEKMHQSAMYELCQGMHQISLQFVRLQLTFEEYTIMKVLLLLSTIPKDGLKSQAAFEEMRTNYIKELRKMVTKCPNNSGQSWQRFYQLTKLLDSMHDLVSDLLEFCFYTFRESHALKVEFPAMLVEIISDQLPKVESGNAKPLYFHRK
Nature of the assay: Mineralocorticoid receptor binding test. The arrangement: made in house; host or cells: Hi5 insect cells (cytosol). Conditions: reference substance 3H-aldosterone, cytosol from MR-expressing insect cells (Hi5). As for the experimental part:
Using cytosol from progesterone receptor-expressing insect cells (Hi5), competitive binding to the progesterone receptor was determined from the ability to displace ^3H-progesterone as reference substance from the receptor.
2. Mineralocorticoid Receptor Binding Test:
The test was carried out as in 1, with the following modifications: cytosol from mineralocorticoid receptor-expressing insect cells (Hi5) was used, and the reference substance was ^3H-aldosterone.

In assay [3] the target is T1, androgen receptor. Nature of the assay: Androgenic/antiandrogenic action by transactivation test (PC3 reporter cells). It counts as cell-based. Set-up: expressed in transfected cells; host or cells: PC3 cells. Here is the method:
(§1) The test compounds were added eight hours later, and the cells were incubated with the compounds for 16 hours. The tests were carried out in triplicate. At the end of incubation the medium containing the effector was removed and replaced with lysis buffer. After luciferase assay substrate (Promega, #E1501) had been added, the 96-well plates were then put in a microplate luminometer (Pherastar, BMG Labtech), and the luminescence was measured. The IC50 values were evaluated using software for calculating dose-effect relations.
6. Determination of Androgenic/Antiandrogenic Action by Means of Transactivation Tests:
The androgenic/antiandrogenic action of the test substances was determined as for the transactivation tests described above.
The following modifications were made: In this case reporter cell lines were used (PC3 cells) that express the androgen receptor, and a reporter construct that contains luciferase under the control of a steroid hormone-responsive promoter.
For determination of the antiandrogenic efficacy, 0.05 nM R1881 was added to the cells, in order to achieve almost maximum stimulation of the reporter gene.

Assay [4] deals with T2, mineralocorticoid receptor. Description: Antimineralocorticoid action by transactivation test (MDCK reporter cells).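 As to Emax: percent inhibition of the aldosterone-stimulated reporter signal.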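 As to Mineralocorticoid receptor Antagonism efficacy: percent inhibition of the aldosterone-stimulated reporter signal.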 The arrangement: expressed in transfected cells; host or cells: MDCK cells. It counts as cell-based. Conditions: for Emax: read-out: Mineralocorticoid receptor Antagonism efficacy. As for the experimental part:
as §1
5. Determination of Antimineralocorticoid Action by Means of Transactivation Tests:
The antimineralocorticoid activity of the test substances was determined as for the transactivation tests described above.
The following modifications were undertaken: In this case reporter cell lines were used (MDCK cells) that express the human mineralocorticoid receptor, and transiently contain a reporter construct that contains luciferase under the control of a steroid hormone-responsive promoter.

Setting [5] is: PC-3, read-out: Androgen receptor Agonism efficacy.
Where [6] appears, read: PC-3, read-out: Androgen receptor Antagonism efficacy.
[7] abbreviates: MDCK cells, with 1 nM aldosterone, read-out: Mineralocorticoid receptor Antagonism IC50.
[8] abbreviates: MDCK cells, with 1 nM aldosterone.

pEC50, pIC50: −log10 of the molar value. Like-named read-outs stand apart in the source and are kept apart here.

In general, pEC50 refers to the EC50 on a negative log10 scale, so that one unit is a factor of ten. A word on the pIC50: it is −log10 of the IC50, conventionally taken in molar units.

`CC[C@]12CC[C@H]3[C@@H]([C@H]4C[C@H]4C4=C(Cl)C(=O)CC[C@@H]43)[C@@H]1[C@@H]1C[C@@H]1[C@@]21C=CC(=O)O1` [Example 8, 6β,7β;15β,16β-Bismethylene-4-chloro-17β-hydroxy-18-methyl-19-nor-17α-pregna-4,20(Z)-dien-3-one-21-carboxylic acid γ-lactone]: the “Androgen receptor Competition factor” value in assay [1] is 240.0. The “Mineralocorticoid receptor (MR) Competition factor” value (shortened to “Mineralocorticoid receptor”) in assay [2] is given as 29.0. In assay [3], this compound had a negative logarithm of the EC50 (pEC50) of 6.60. The negative-log IC50 (pIC50) in assay [3] was 6.89; in assay [4] (setting [7]), 6.02. For the same compound, the Emax in assay [3] (setting [5]) was found to be 32.9%; in assay [3] (setting [6]) it was 22.9%; in assay [4] (setting [8]), 31.1%.
With `CC[C@]12CC[C@H]3[C@@H](C[C@@H](CO)C4=CC(=O)CC[C@@H]43)[C@@H]1[C@@H]1C[C@@H]1[C@@]21C=CC(=O)O1` [Example 10, 17β-Hydroxy-6β-hydroxymethylene-18-methyl-15β,16β-methylene-19-nor-17α-pregna-4,20(Z)-dien-3-one-21-carboxylic acid γ-lactone], in assay [1], the “Androgen receptor Competition factor” value turned out to be 1000.0. For the same compound, the “Mineralocorticoid receptor” value in assay [2] is given as 2.7. Further, in assay [3], the pEC50 was 6.89. In addition, the figures for the pIC50 in assay [3] and in assay [4] (setting [7]) were 6.80 and 6.96, respectively. The Emax in assay [3] (setting [5]) stood at 17.9%; in assay [3] (setting [6]) it was 15.6%; in assay [4] (setting [8]) it was 92.7%.
In the case of `C[C@]12CC[C@H]3[C@@H](CCC4=C(Cl)C(=O)CC[C@@H]43)[C@@H]1[C@@H]1C[C@@H]1[C@@]21C=CC(=O)O1` [Example 27, 4-Chloro-17β-hydroxy-15β,16β-methylene-19-nor-17α-pregna-4,20(Z)-dien-3-one-21-carboxylic acid γ-lactone], in assay [1], the “Androgen receptor Competition factor” value came to 36.4. The “Mineralocorticoid receptor” value in assay [2] is reported as 47.0. The compound further showed a pEC50 in assay [3] of 7.16. The Emax in assay [3] (setting [5]) amounted to 66.9%; in assay [3] (setting [6]), 5%; in assay [4] (MDCK), 5%. The pIC50 in assay [4] was 6.00.
With `CC[C@]12CC[C@H]3[C@H]([C@@H]1[C@@H]1C[C@@H]1[C@@]21C=CC(=O)O1)[C@H](C1CC1)CC1=CC(=O)CC[C@@H]13` [Example 7A, 17β-Hydroxy-7α-cyclopropyl-18-methyl-15β,16β-methylene-19-nor-17α-pregna-4,20(Z)-dien-3-one-21-carboxylic acid γ-lactone], the “Androgen receptor Competition factor” value in assay [1] was 5.2. Further, the “Mineralocorticoid receptor” value in assay [2] was found to be 4.7. In addition, the negative-log EC50 (pEC50) in assay [3] was 7.48. The Emax in assay [3] (setting [5]) was found to be 62.6%; in assay [3] (setting [6]), 5%; in assay [4] (MDCK), 102%. The same compound had a negative logarithm of the IC50 (pIC50) in assay [4] of 7.11.
Take `CC[C@@H]1CC2=CC(=O)CC[C@@H]2[C@H]2CC[C@@]3(C)[C@@H]([C@@H]4C[C@@H]4[C@@]34C=CC(=O)O4)[C@H]12` [Example 24A, 7α-Ethyl-17β-hydroxy-15β,16β-methylene-19-nor-17α-pregna-4,20(Z)-dien-3-one-21-carboxylic acid γ-lactone]: the “Androgen receptor Competition factor” value in assay [1] is on record as 8.1. Besides, the “Mineralocorticoid receptor” value in assay [2] was 1.9. For the same compound, in assay [3], the negative logarithm of the EC50 (pEC50) was 7.28. Besides, the negative-log IC50 (pIC50) in assay [3] is 7.96; in assay [4], 6.80. In addition, the Emax worked out at 36.8% in assay [3] (setting [5]), 22.5% in assay [3] (setting [6]) and 81.1% in assay [4] (MDCK).
In the case of `C=C[C@@H]1CC2=CC(=O)CC[C@@H]2[C@H]2CC[C@@]3(C)[C@@H]([C@@H]4C[C@@H]4[C@@]34C=CC(=O)O4)[C@@H]21` [Example 25A, 17β-Hydroxy-15β,16β-methylene-7α-vinyl-19-nor-17α-pregna-4,20(Z)-dien-3-one-21-carboxylic acid γ-lactone], in assay [1], the “Androgen receptor Competition factor” value was determined as 1.4. Also, in assay [2], the “Mineralocorticoid receptor” value stood at 9.4. Moreover, in assay [3], the negative logarithm of the EC50 (pEC50) is 8.74. Further, the Emax in assay [3] (setting [5]) came out at 73.3%; in assay [3] (setting [6]), 5%; in assay [4] (MDCK), 84.1%. For the same compound, the negative logarithm of the IC50 (pIC50) in assay [4] was 6.04.
With `C[C@]12CC[C@H]3[C@H]([C@@H]1[C@H]1C[C@H]1[C@@]21C=CC(=O)O1)[C@H](C1CC1)CC1=CC(=O)CC[C@@H]13` [Example 17A, 17β-Hydroxy-7α-cyclopropyl-15α,16α-methylene-19-nor-17α-pregna-4,20(Z)-dien-3-one-21-carboxylic acid γ-lactone], the “Androgen receptor Competition factor” value in assay [1] amounted to 5.2. Moreover, the “Mineralocorticoid receptor” value in assay [2] is 2.6. The compound further gave a pEC50 in assay [3] of 7.64. For the same compound, the negative-log IC50 (pIC50) in assay [3] was 7.96; in assay [4] it was 7.05. The Emax was 40.8% in assay [3] (setting [5]), 33.7% in assay [3] (setting [6]) and 115% in assay [4] (MDCK).
Take `CC[C@]12CC[C@H]3[C@H]([C@@H]1[C@@H]1C[C@@H]1[C@@]21C=CC(=O)O1)[C@H](C)CC1=CC(=O)CC[C@@H]13` [Example 4A, 7α,18-Bismethyl-17β-hydroxy-15β,16β-methylene-19-nor-17α-pregna-4,20(Z)-dien-3-one-21-carboxylic acid γ-lactone]: the “Androgen receptor Competition factor” value in assay [1] is recorded as 2.6. For the same compound, the “Mineralocorticoid receptor” value in assay [2] worked out at 0.6. This compound also gave a pEC50 in assay [3] of 8.52. The Emax in assay [3] (setting [5]) was found to be 97.5%; in assay [3] (setting [6]), 5%; in assay [4] (MDCK) it was 99.9%. Also, in assay [4], the negative-log IC50 (pIC50) was 8.52.

The values above are taken from patent US20110015162A1, “15,16-Methylene-17-hydroxy-19-nor-21-carboxylic acid-steroid Y-lactone derivative, use thereof and medicinal products containing the derivative” (Bayer Schering Pharma Aktiengesellschaft, priority 2007, published 2011).
